Assay results published in patent US9290447B2, “(20R) and (20S)-24-(p-toluenesulfonyloxy)-25,26,27-trinorvitamin D3 analogs and their uses” (Wisconsin Alumni Research Foundation, priority 2011, dated 2016).

Columns and labels:
[1] = system: H-82 lung carcinoma cells; test: Cell viability, H-82 lung carcinoma cells; format: cell-based; details: four days growth, methylene blue; FIG. 5A/5B
Experimental: (§1) Various cell lines were plated, administered a range of drug concentrations one time, allowed to grow for four days and then the number of cells present counted and expressed as a percentage of those present in the vehicle control plates. […] The number of live cells was expressed as a percentage of the total present. Each assay was done in duplicate.

HL-60 leukemia cells = test: Cell viability, HL-60 leukemia cells; format: cell-based, human; details: four days growth, methylene blue; FIG. 4A/4B
Experimental: as §1

HL-60 cells = test: HL-60 differentiation (nitro blue tetrazolium reduction); format: cell-based, human; details: FIG. 2
Experimental: The study drugs were dissolved in ethanol and the concentrations determined using UV spectrophotometry. Serial dilutions were prepared so that a range of drug concentrations could be tested without changing the final concentration of ethanol (≦0.2%) present in the cell cultures.
Human promyelocytic leukemia (HL60) cells were grown in RPMI-1640 medium containing 10% fetal bovine serum. The cells were incubated at 37° C. in the presence of 5% CO2.
HL60 cells were plated at 1.2×10^5 cells/ml. Eighteen hours after plating, cells in duplicate were treated with drug. Four days later, the cells were harvested and a nitro blue tetrazolium reduction assay was performed (Collins et al., 1979; J. Exp. Med. 149:969-974). The percentage of differentiated cells was determined by counting a total of 200 cells and recording the number that contained intracellular black-blue formazan deposits. Verification of differentiation to monocytic cells was determined by measuring phagocytic activity (data not shown).

vitamin D-deficient rats [2] = test: Intestinal calcium transport (everted gut sac method); format: in vivo, rat; details: 4 consecutive ip doses, FIG. 10
Experimental: (§2) Male, weanling Sprague-Dawley rats were placed on Diet 11 (Suda et al, J. Nutr. 100:1049, 1970) (0.47% Ca)+AEK oil for one week followed by Diet 11 (0.02% Ca)+AEK oil for 3 weeks. The rats were then switched to the same diet containing 0.47% Ca for one week followed by two weeks on the same diet containing 0.02% Ca. Dose administration began during the last week on 0.02% calcium diet. Four consecutive intraperitoneal (ip) doses were given approximately 24 hours apart. Twenty-four hours after the last dose, blood was collected from the severed neck and the concentration of serum calcium determined by atomic absorption spectrometry as a measure of bone calcium mobilization. The first 10 cm of the intestine was also collected for intestinal calcium transport analysis using the everted gut sac method.

vitamin D-deficient rats [3] = test: Bone calcium mobilization (serum calcium); format: in vivo, rat; details: rats on 0.02% Ca diet, FIG. 9
Experimental: as §2

[4] = system: 24-hydroxylase (24Ohase) gene promoter; test: In vitro transcription assay (24-hydroxylase promoter luciferase reporter in ROS 17/2.8 bone cells); format: cell-based; details: FIG. 3
Experimental: Cells were given a range of doses. Sixteen hours alter dosing the cells were harvested and luciferase activities were measured using a luminometer. RLU=relative luciferase units.

[5] = biological target: T1, full-length recombinant rat vitamin D receptor (Rattus norvegicus, UniProt P13053); test: Vitamin D receptor competitive binding with [3H]-1,25(OH)2D3; details: compared to 1α,25-dihydroxyvitamin D3; FIG. 1
T1 construct: Full-length recombinant rat receptor was expressed in E. coli; histidine tag (C); made in house; host or cells: E. coli BL21 (DE3) Codon Plus RIL
T1 sequence (P13053 1-423): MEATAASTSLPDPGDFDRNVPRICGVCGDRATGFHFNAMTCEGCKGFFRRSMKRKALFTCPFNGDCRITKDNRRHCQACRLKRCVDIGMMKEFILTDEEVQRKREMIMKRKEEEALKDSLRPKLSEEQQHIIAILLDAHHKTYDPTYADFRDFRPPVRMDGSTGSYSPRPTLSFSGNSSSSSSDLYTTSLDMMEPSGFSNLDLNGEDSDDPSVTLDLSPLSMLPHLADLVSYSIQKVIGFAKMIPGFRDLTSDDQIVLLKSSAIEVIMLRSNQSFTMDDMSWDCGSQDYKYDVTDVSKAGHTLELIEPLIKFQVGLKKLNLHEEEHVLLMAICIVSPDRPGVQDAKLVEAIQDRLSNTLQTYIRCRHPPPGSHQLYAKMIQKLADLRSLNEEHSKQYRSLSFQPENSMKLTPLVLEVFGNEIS
Experimental: Full-length recombinant rat receptor was expressed in E. coli BL21 (DE3) Codon Plus RIL cells and purified to homogeneity using two different column chromatography systems. The first system was a nickel affinity resin that utilizes the C-terminal histidine tag on this protein. […] Aliquots of the purified protein were quick frozen in liquid nitrogen and stored at −80° C. until use. For use in binding assays, the protein was diluted in TEDK50 (50 mM Tris, 1.5 mM EDTA, pH7.4, 5 mM DTT, 150 mM KCl) with 0.1% Chaps detergent. The receptor protein and ligand concentration was optimized such that no more than 20% of the added radiolabeled ligand was bound to the receptor.
Radiolabeled and unlabeled ligands were added to 100 mcl of the diluted protein at a final ethanol concentration of ≦10%, mixed and incubated overnight on ice to reach binding equilibrium. The following day, 100 mcl of hydroxylapatite slurry (50%) was added to each tube and mixed at 10-minute intervals for 30 minutes. The hydroxylapaptite was collected by centrifugation and then washed three times with Tris-EDTA buffer (50 mM Tris, 1.5 mM EDTA, pH 7.4) containing 0.5% Titron X-100. […] Total binding was determined from the tubes containing only radiolabeled ligand.

[6] = Change in body weight of dosed animals; format: in vivo, rat; details: various doses; FIG. 11
Experimental: as §2

[7] = system: DU-145 prostate cancer cells; test: Cell viability, DU-145 prostate cancer cells; format: cell-based; details: four days growth, methylene blue; FIG. 6
Experimental: as §1

[8] = system: ROS 17/2.8 bone cancer cells; test: Cell viability, ROS 17/2.8 bone cancer cells; format: cell-based; details: four days growth, methylene blue; FIG. 7
Experimental: as §1

[9] = system: OVCAR3 ovarian cancer cells; test: Cell viability, OVCAR3 ovarian cancer cells; format: cell-based; details: four days growth, methylene blue; FIG. 8
Experimental: as §1

C=C1/C(=C\C=C2/CCC[C@]3(C)[C@@H]([C@H](C)CCCC(C)(C)O)CC[C@@H]23)C[C@@H](O)C[C@@H]1O [1,25(OH)2D3, 1α,25-dihydroxyvitamin D3, reference compound]
Viability of H-82 lung carcinoma cells [1]: requires a significantly higher dose
Viability of HL-60 leukemia cells (HL-60 leukemia cells): does not have any significant effect on the viability
EC50 (HL-60 cells; four days after treatment, read-out: EC50, HL-60 cell differentiation): 2 nM
Intestinal calcium transport activity (vitamin D-deficient rats [2]; 260 pmol and 780 pmol doses): significant increase in activity
Bone calcium mobilization (serum calcium) (vitamin D-deficient rats [3]; 4 consecutive ip doses): significant increases in serum calcium
EC50 ([4]; ROS 17/2.8 cells, 16 h after dosing): 0.1 nM

C=C1CC[C@H](O)C/C1=C/C=C1\CCC[C@]2(C)[C@@H]([C@H](C)CCCOS(=O)(=O)c3ccc(C)cc3)CC[C@@H]12 [TS-17, (20R)-25,26,27-trinor-24-(p-methylphenylsulfonate)-vitamin D3]
Viability of H-82 lung carcinoma cells [1]: kills H-82 lung carcinoma cells
VDR binding activity relative to natural hormone (times less active) [5]: at least 100 times less active
Body weight throughout the test period [6]: substantially maintain their body weight
Viability of HL-60 leukemia cells (HL-60 leukemia cells): kills HL-60 leukemia cells
Viability of DU-145 prostate cells [7]: does not have any significant effect on the viability
HL-60 cell differentiation (in words) (HL-60 cells): does not promote HL60 differentiation
Viability of ROS 17/2.8 bone cancer cells [8]: does not have any significant effect on the viability
Intestinal calcium transport activity (vitamin D-deficient rats [2]; 35,100 pmol/rat): little to no activity
Viability of OVCAR3 ovarian cancer cells [9]: does not have any significant effect on the viability
Bone calcium mobilization (serum calcium) (vitamin D-deficient rats [3]; 35,100 pmol/day for 4 consecutive days, ip): little or no mobilization of bone calcium
Transcriptional activity in bone cells (in words) ([4]; until very high doses are administered): lacks any transcriptional activity
